Source: paper PMC12005787, “Synthetic Lethality of SHP2 and XIAP Suppresses Proliferation and Metastasis in KRAS‐mutant Nonsmall Cell Lung Cancer” (Advanced Science, 2025)
Where two headings read alike, the source gives them in different places.

Legend:
A549 and NCI‐H2122 cells = assay: Compound removal from culture media (western blotting); type: cell-based, human
Excerpt: Due to the poor membrane permeability of SHP2 catalytic inhibitors,^[ [18], [30] ^] we examined the effect of embelin on SHP2 expression and phosphorylation after removing the compound from the culture media of A549 and NCI‐H2122 cells.

NCI-H838 cells = assay: Cell viability assay (CCK-8); type: cell-based; conditions: Homo sapiens
Procedure: (§1) KRAS-mutant and wild-type cells are listed in Supplementary Table S7.
(§2) For the adherent cell viability assay, cells in the logarithmic growth phase were seeded in 96-well culture plates at a density of 5×103 well-1 and incubated overnight. Diluted compounds or DMSO were added, or specific treatments were incubated at 37 °C and 5% CO2 for 24 h or 48 h. Cell viability was determined using CCK-8 or CellLightTM Cell Viability Assay Kit, according to the manufacturer's protocol. The luminescence signals of the treated samples were normalized to those of the DMSO group. […]

NCI-H1944 cells = assay: Cell viability assay (CCK-8); type: cell-based; conditions: Homo sapiens
Procedure: as §1, §2

NCI-H358 cells = assay: Cell viability assay (CCK-8); type: cell-based; conditions: Homo sapiens
Procedure: as §1, §2

NCI-H1915 cells = assay: Cell viability assay (CCK-8); type: cell-based
Procedure: as §1, §2

His‐ΔSHP2^K325A = biological target: T1, His‐ΔSHP2^K325A (Homo sapiens, UniProt Q06124, K325A); assay: Isothermal titration calorimetry; type: binding; conditions: read-out: KD value (ITC)
T1 construct: His‐ΔSHP2, encompassing the peptide from amino acids 205–593 retaining PTP activity; His; made in house; host or cells: E. coli BL21
Procedure: The purified His‐ΔSHP2, His‐SHP2, or His‐ΔSHP2^K325A proteins were dialyzed overnight in dialysis buffer (20 mM HEPES, 0.15 M NaCl, 1 mM TCEP, 10% glycerol, pH 7.5). The protein concentration was determined using the BCA Protein Assay Kit, and the purity of the proteins was detected by Coomassie Brilliant Blue staining. ITC experiments were performed when the protein concentration was higher than 2 mg mL^−1 and the purity was greater than 90%. The instrument (Malvern Instruments, USA) was considered to be functioning optimally for compound and protein titration experiments when the DP value was < 0.05 µcal s^−1 by the water droplet experiment. After the sample cell was cleaned twice with protein dialysis buffer, a protein sample (300 µL) was loaded to the sample cell, an equal amount of ultrapure water was added to the reference cell, and the compound solution dissolved with the same dialysis buffer was put into the corresponding cell, in which the protein‐compound molar ratio was 1:10–1:20. The parameters were adjusted based on the curve‐fitting results to determine the optimal binding concentration gradient. Based on the exothermic changes in the reaction, the entropy increase and enthalpy change were analyzed using software fitting to obtain parameters such as the binding coefficient and affinity constant between the small molecules and proteins. […]

His‐ΔSHP2 = biological target: T2, His‐ΔSHP2 (Homo sapiens, UniProt Q06124); assay: Enzymatic inhibition analysis (Michaelis-Menten, Lineweaver-Burk); type: biochemical
T2 construct: His‐ΔSHP2, encompassing the peptide from amino acids 205–593 retaining PTP activity; His; made in house; host or cells: E. coli
T2 sequence (Q06124 205-593): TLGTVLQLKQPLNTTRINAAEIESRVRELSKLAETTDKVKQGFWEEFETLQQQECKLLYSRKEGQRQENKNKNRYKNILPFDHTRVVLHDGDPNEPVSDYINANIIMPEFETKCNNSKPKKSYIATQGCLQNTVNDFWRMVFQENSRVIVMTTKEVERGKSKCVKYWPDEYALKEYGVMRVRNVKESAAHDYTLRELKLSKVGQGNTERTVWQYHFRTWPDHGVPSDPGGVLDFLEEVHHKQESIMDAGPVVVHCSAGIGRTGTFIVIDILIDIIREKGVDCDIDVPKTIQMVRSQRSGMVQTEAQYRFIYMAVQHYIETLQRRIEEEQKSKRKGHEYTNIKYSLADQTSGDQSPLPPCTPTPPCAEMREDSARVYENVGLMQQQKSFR
Procedure: A Michaelis‐Menten model and Lineweaver‐Burk plot of SHP2 inhibition by embelin were established. In brief, enzyme kinetics of SHP2 varied with the concentrations of substrate DiFMUP and embelin, concentrations of embelin were selected at 0, 10, and 20 µM, and concentrations of DiFMUP were selected at 10, 20, 40, 80, and 160 µM. Recombinant His‐ΔSHP2 was preincubated for 30 min with embelin or DMSO at various concentrations in the absence of substrate and then assayed for enzymatic activity at different times as mentioned above.

[1] = embelin 0, 10, 20 µM, DiFMUP 10-160 µM

membrane permeability (inferred from removal after 6 h vs continuous 24 h treatment) (A549 and NCI‐H2122 cells): strong membrane permeability
IC50 (NCI-H838 cells; NCI-H838, 48 h, read-out: IC50 at 48 h): 10.5 ± 0.44 µM
IC50 (NCI-H838 cells; NCI-H838, RAS-wild type, 24 h, read-out: IC50 at 24 h): 39.79 ± 0.27 µM
IC50 (NCI-H1944 cells; NCI-H1944, 48 h, read-out: IC50 at 48 h): 21.6 ± 0.9 µM
IC50 (NCI-H1944 cells; NCI-H1944, KRAS G13D, 24 h, read-out: IC50 at 24 h): 31 ± 0.2 µM
IC50 (NCI-H358 cells; NCI-H358, 48 h, read-out: IC50 at 48 h): 9.2 ± 0.3 µM
IC50 (NCI-H358 cells; NCI-H358, KRAS G12C, 24 h, read-out: IC50 at 24 h): 12.2 ± 0.4 µM
IC50 (NCI-H1915 cells; NCI-H1915, 48 h, read-out: IC50 at 48 h): 11.4 ± 0.39 µM
IC50 (NCI-H1915 cells; NCI-H1915, HRAS, 24 h, read-out: IC50 at 24 h): 60.6 ± 0.41 µM
Kd (His‐ΔSHP2^K325A): 0.346 µM
type of inhibition of SHP2 (His‐ΔSHP2): noncompetitive inhibitor
Km of ΔSHP2 protein after addition of compound (His‐ΔSHP2; [1]): unchanged
Vm of ΔSHP2 protein after addition of compound (His‐ΔSHP2; [1]): decreased
Structure (SMILES): CCCCCCCCCCCC1=C(O)C(=O)C=C(O)C1=O [Embelin]
